Values joined by “and” are separate entries in the source; they are usually repeats but may differ in a detail not shown here. Equal entries are not always repeated. Where two headings read alike, the source gives them in different places.
Assays:
[1] = Organic phase/aqueous phase partition coefficient of nicotine in presence of LIX (Table I); format: physicochemical; settings: in words; for solubility of the nicotine-LIX complex: water versus hexane
Text: As hereinbefore disclosed, two different experimental criteria can be used to measure the capability of a LIX. First, the organic phase/water phase partition coefficient (PC) can be determined. The partition coefficient, as used herein, can be defined as the ratio of the amount of a substance dissolved in one phase in relation to the amount of the substance dissolved in the second phase. Accordingly, in determining the partition coefficient in the solvent extraction of nicotine from a tobacco processing fluid to another, the ratio would be the concentration of nicotine in the organic (extraction) phase divided by the concentration of nicotine in the aqueous (process) phase. If the partition coefficient increases, i.e., more of the nicotine is soluble in the organic phase, in the presence of a LIX, then this LIX meets one of the objectives for a successful nicotine transfer agent.
Table I is a presentation of the partition coefficients of various liquid ion exchangers, including control experiments where no LIX are utilized. […] Capabilities of the LIX as well as the components of the various phases must all be considered.

[2] = 180 min; 5% LIX, 20 mM nicotine, 4 L FS; ND = None detected
Text: (§1) The apparatus used is a Model MSX-750 laboratory unit purchased from Sepracor, Inc., Marlborough, Mass.; it is a 3-panel, 3-loop, 2-membrane operation. As shown in the Figure, each panel has a solvent circulation pump (1), pressure gauge, flow rotometer, and multiple valves for control of the solvent input and output (not shown). A separate pump controller (not shown) provides variable speed and on/off controls for all three panels. Analysis ports are built into the unit to allow pH readings at the feedstock (2)- and recovery panels (3)- and automatic pH titration at the recovery solution panel. Sample aliquots can be removed from all three system solvents in line (4)- or from the reservoirs (5). The membrane modules (6) contain a hollow fiber bundle in a plastic cartridge with connectors to allow flow through the hollow fibers (lumen) with one solvent and simultaneous flow around the fibers (shell) with an "exchanging" solvent (not shown). The membrane fibers used were either regenerated cellulose (RC) or polyacrylonitrile (PAN) and were 0.5-1.5 square meters in surface area.
For this membrane separation process, solutions are recirculated at 100-900 ml/min. The feedstock reservoir volume is between 0.5 L and 8.0 L of aqueous solution which is 0.1-10.0% dissolved base, e.g., pyridine or nicotine, at a pH between 4 and 10. […]

[3] = 2% LIX in Isopar K, 1.5 m2 PAN
Text: as §1
For this membrane separation process, solutions are recirculated at 100-900 ml/min. The feedstock reservoir volume is between 0.5 L and 8.0 L of aqueous solution which is 0.1-10.0% dissolved base, e.g., pyridine or nicotine, at a pH between 4 and 10. The feedstock solution can also contain other compounds, e.g., tobacco components. The organic solvent (OS) reservoir contains from 300-1000 mL of a water-immiscible solvent like hexane, heptane, octane, nonane, decane or Isopar K (Exxon) to which is added 0.1-10.0% of LIX. The OS is recirculated in the center panel through the lumen of both membrane modules and is always kept at 2-10 psi higher than the aqueous phases to maintain phase separation. The aqueous recovery solution is maintained at a constant pH (1.0-4.0) via an automatic titration unit (Metrohm Model 665 Dosimat with Model 614 Impulsomat and Model 632 Digital-pH-Meter, Metrohm Ltd., CH-9100 Herisau, Switzerland) using 1.0 M sulfuric acid to provide a pH differential and as a collection sink for the base being transferred, e.g., pyridine or nicotine.
Seven consecutive runs were performed with the apparatus outlined in Example XII without the use of a LIX in the OS, changing to a fresh 1 liter 0.32% nicotine FS each run and leaving the RS alone to concentrate the nicotine recovered (Section A). Prior to run 8, fresh FS, OS and RS solutions were placed within the system. For the five consecutive runs 8-12, 2% LIX (Example X) in Isopar K was used as the OS, 0.32% nicotine in deionized water for FS (one liter fresh for each run), and a fresh deionized water RS was left in place for all five runs to concentrate the nicotine (Section B). The volume of the RS increased during the runs 8-12 because the nicotine was transferred into it and because acid solution was pumped into it to maintain a pH of ca. 3. Then three additional runs 13-15 were made using the same OS and the same RS (to form a more concentrated nicotine solution) from Section B; 4 L FS solutions of 0.32% nicotine in deionized water (a fresh solution each run) were used (Section C). […] The OS continues to operate without replacement.

Structure (SMILES)	partition coefficient compared with no LIX present [1]	solubility of the nicotine-LIX complex [1]	Percent (%) remaining in FS [2]	Percent (%) nicotine remaining in FS ([3]; Section B, 0 min, 1 liter FS at 0.32% nicotine)	Percent (%) nicotine remaining in FS ([3]; Section B, 15 min, 1 liter FS at 0.32% nicotine)	Percent (%) nicotine remaining in FS ([3]; Section B, 30 min, 1 liter FS at 0.32% nicotine)	Percent (%) nicotine remaining in FS ([3]; Section B, 45 min, 1 liter FS at 0.32% nicotine)	Percent (%) nicotine remaining in FS ([3]; Section B, 60 min, 1 liter FS at 0.32% nicotine)	Percent (%) nicotine remaining in FS ([3]; Section C, 0 min, 4 liters FS at 0.32% nicotine)	Percent (%) nicotine remaining in FS ([3]; Section C, 60 min, 4 liters FS at 0.32% nicotine)	Percent (%) nicotine remaining in FS ([3]; Section C, 120 min, 4 liters FS at 0.32% nicotine)	Percent (%) nicotine remaining in FS ([3]; Section C, 180 min, 4 liters FS at 0.32% nicotine)	Percent (%) nicotine remaining in FS ([3]; Section C, 240 min, 4 liters FS at 0.32% nicotine)
CCCCC(CC)COC(=O)[C@H](OC(=O)CC)[C@@H](OC(=O)CC)C(=O)O (mixture of isomers) [Example V, (2R, 3R, 2'R)- and (2R, 3R, 2'S)-Mono(2'-Ethylhexyl) 2,3-Bis(propionyloxy)butanedioate]	less than without any LIX present	more water soluble than hexane soluble	–	–	–	–	–	–	–	–	–	–	–
CCCCC(CC)COC(=O)[C@H](OC(=O)C(CC)CCCC)[C@@H](OC(=O)C(CC)CCCC)C(=O)O (stereo partly drawn) [Example X, (2R, 3R, 2'.xi., 2''.xi., 2'''.xi.)-Mono(2'-Ethylhexyl) 2,3-Bis(2-ethylhexanoyloxy)butanedioate]	–	–	10.0%	100%	49% and 50%	37% and 36% and 35%	23% and 24%	14% and 13%	100%	51%	35% and 37%	21% and 23%	13%
CCCCC(CC)COC(=O)[C@H](OC(C)=O)[C@@H](OC(C)=O)C(=O)O (mixture of isomers) [Example III, (2R, 3R, 2'R)- and (2R, 3R, 2'S)-Mono(2'-Ethylhexyl) 2,3-Bis(acetyloxy)butanedioate]	less than without any LIX present	more water soluble than hexane soluble	–	–	–	–	–	–	–	–	–	–	–

Source: US5230802A, “Extraction process using a novel organic acid as a liquid ion exchanger” (Philip Morris Incorporated, priority 1992, dated 1993)
